Results from EPA's CvTdb concentration-time database.

Tests used:
[1] = test system: Rat; experiment: concentration in liver after dosing
[2] = test system: Rat; experiment: concentration in plasma after dosing
[3] = test system: Rat; experiment: concentration in brain after dosing; conditions: dosed: Fluorotelomer alcohol 8+2, oral
[4] = test system: Rat; experiment: concentration in kidney after dosing; conditions: dosed: Fluorotelomer alcohol 8+2, oral
[5] = test system: Rat; experiment: concentration in heart after dosing; conditions: dosed: Thiodiglycolic Acid, 20 mg/kg, iv
[6] = test system: Rat; experiment: concentration in thymus after dosing; conditions: dosed: Thiodiglycolic Acid, 20 mg/kg, iv
[7] = test system: Rat; experiment: concentration in plasma after dosing; conditions: 22 h; dosed: Primidone; 130 mg/kg; oral; Male; F344

OCCC(F)(F)C(F)(F)C(F)(F)C(F)(F)C(F)(F)C(F)(F)C(F)(F)C(F)(F)F [Fluorotelomer alcohol 8+2]
Conditions | concentration in liver [ng/g] | concentration in plasma [ng/mL]
[1], 0.5 h, dosed: Fluorotelomer alcohol 8+2, 24 mg/kg, oral, Male, Harlan Sprague Dawley | 17700 | –
[1], 0.5 h, dosed: Fluorotelomer alcohol 8+2, 24 mg/kg, oral, Male, Harlan Sprague Dawley - this seems too small | 2190 | –
[1], 0.5 h, dosed: Fluorotelomer alcohol 8+2, 80 mg/kg, oral, Female, Harlan Sprague Dawley | 11600 | –
[1], 1 h, dosed: Fluorotelomer alcohol 8+2, 24 mg/kg, oral, Male, Harlan Sprague Dawley | 3900 | –
[1], 1 h, dosed: Fluorotelomer alcohol 8+2, 80 mg/kg, oral, Female, Harlan Sprague Dawley | 12500 | –
[1], 3 h, dosed: Fluorotelomer alcohol 8+2, 24 mg/kg, oral, Male, Harlan Sprague Dawley | 2230 | –
[1], 3 h, dosed: Fluorotelomer alcohol 8+2, 80 mg/kg, oral, Female, Harlan Sprague Dawley | 9320 | –
[1], 6 h, dosed: Fluorotelomer alcohol 8+2, 24 mg/kg, oral, Male, Harlan Sprague Dawley | 2050 | –
[1], 6 h, dosed: Fluorotelomer alcohol 8+2, 80 mg/kg, oral, Female, Harlan Sprague Dawley | 3970 | –
[1], 12 h, dosed: Fluorotelomer alcohol 8+2, 24 mg/kg, oral, Male, Harlan Sprague Dawley | 604 | –
[1], 12 h, dosed: Fluorotelomer alcohol 8+2, 80 mg/kg, oral, Female, Harlan Sprague Dawley | 1610 | –
[2], 0.25 h, dosed: Fluorotelomer alcohol 8+2, 12 mg/kg, iv, Male, F344 | – | 1590
[2], 0.25 h, dosed: Fluorotelomer alcohol 8+2, 12 mg/kg, oral, Male, Harlan Sprague Dawley | – | 82.2
[2], 0.25 h, dosed: Fluorotelomer alcohol 8+2, 24 mg/kg, oral, Male, Harlan Sprague Dawley | – | 110
[2], 0.25 h, dosed: Fluorotelomer alcohol 8+2, 40 mg/kg, iv, Male, F344 | – | 13000
[2], 0.5 h, dosed: Fluorotelomer alcohol 8+2, 12 mg/kg, iv, Male, F344 | – | 1260
[2], 0.5 h, dosed: Fluorotelomer alcohol 8+2, 12 mg/kg, oral, Male, Harlan Sprague Dawley | – | 215
[2], 0.5 h, dosed: Fluorotelomer alcohol 8+2, 40 mg/kg, iv, Female, Harlan Sprague-Dawley | – | 8470
[2], 0.5 h, dosed: Fluorotelomer alcohol 8+2, 40 mg/kg, iv, Male, F344 | – | 5070
[2], 0.75 h, dosed: Fluorotelomer alcohol 8+2, 12 mg/kg, iv, Male, F344 | – | 422
[2], 0.75 h, dosed: Fluorotelomer alcohol 8+2, 12 mg/kg, oral, Male, Harlan Sprague Dawley | – | 348
[2], 0.75 h, dosed: Fluorotelomer alcohol 8+2, 40 mg/kg, iv, Female, Harlan Sprague-Dawley | – | 2350
[2], 1 h, dosed: Fluorotelomer alcohol 8+2, 12 mg/kg, iv, Male, F344 | – | 625
[2], 1 h, dosed: Fluorotelomer alcohol 8+2, 12 mg/kg, oral, Male, Harlan Sprague Dawley | – | 264
[2], 1 h, dosed: Fluorotelomer alcohol 8+2, 40 mg/kg, iv, Female, Harlan Sprague-Dawley | – | 2720
[2], 3 h, dosed: Fluorotelomer alcohol 8+2, 12 mg/kg, iv, Male, F344 | – | 118
[2], 3 h, dosed: Fluorotelomer alcohol 8+2, 12 mg/kg, oral, Male, Harlan Sprague Dawley | – | 84.4
[2], 3 h, dosed: Fluorotelomer alcohol 8+2, 40 mg/kg, iv, Male, F344 | – | 378
[2], 5 min, dosed: Fluorotelomer alcohol 8+2, 12 mg/kg, iv, Male, F344 | – | 3550
[2], 5 min, dosed: Fluorotelomer alcohol 8+2, 12 mg/kg, oral, Male, Harlan Sprague Dawley | – | 2.61
[2], 5 min, dosed: Fluorotelomer alcohol 8+2, 24 mg/kg, oral, Male, Harlan Sprague Dawley | – | 6.33
[2], 6 h, dosed: Fluorotelomer alcohol 8+2, 12 mg/kg, iv, Male, F344 | – | 48.7
[2], 6 h, dosed: Fluorotelomer alcohol 8+2, 12 mg/kg, oral, Male, Harlan Sprague Dawley | – | 37.1
[2], 6 h, dosed: Fluorotelomer alcohol 8+2, 40 mg/kg, iv, Male, F344 | – | 254
[2], 9 h, dosed: Fluorotelomer alcohol 8+2, 12 mg/kg, iv, Male, F344 | – | 23.8
[2], 9 h, dosed: Fluorotelomer alcohol 8+2, 12 mg/kg, oral, Male, Harlan Sprague Dawley | – | 11.6
[2], 9 h, dosed: Fluorotelomer alcohol 8+2, 24 mg/kg, oral, Male, Harlan Sprague Dawley | – | 40.2
[2], 9 h, dosed: Fluorotelomer alcohol 8+2, 40 mg/kg, iv, Female, Harlan Sprague-Dawley | – | 76.6
[2], 9 h, dosed: Fluorotelomer alcohol 8+2, 40 mg/kg, iv, Male, F344 | – | 47
[2], 12 h, dosed: Fluorotelomer alcohol 8+2, 12 mg/kg, iv, Male, F344 | – | 5.59
[2], 12 h, dosed: Fluorotelomer alcohol 8+2, 12 mg/kg, oral, Male, Harlan Sprague Dawley | – | 4.01
[2], 12 h, dosed: Fluorotelomer alcohol 8+2, 40 mg/kg, iv, Female, Harlan Sprague-Dawley | – | 34.6
[2], 24 h, dosed: Fluorotelomer alcohol 8+2, 12 mg/kg, iv, Male, F344 | – | 4.63
[2], 24 h, dosed: Fluorotelomer alcohol 8+2, 12 mg/kg, oral, Male, Harlan Sprague Dawley | – | 1.18
[2], 24 h, dosed: Fluorotelomer alcohol 8+2, 24 mg/kg, oral, Male, Harlan Sprague Dawley | – | 2.62
[2], 24 h, dosed: Fluorotelomer alcohol 8+2, 40 mg/kg, iv, Female, Harlan Sprague-Dawley | – | 23.2

Conditions | concentration in brain, [3] [ng/g] | concentration in kidney, [4] [ng/g]
0.5 h, 24 mg/kg, Male, Harlan Sprague Dawley | 4540 | 3380
0.5 h, 24 mg/kg, Male, Harlan Sprague Dawley - this seems too small | 978 | 1060
0.5 h, 80 mg/kg, Female, Harlan Sprague Dawley | 5440 | 2910
1 h, 24 mg/kg, Male, Harlan Sprague Dawley | 2450 | 1560
1 h, 80 mg/kg, Female, Harlan Sprague Dawley | 9090 | 6420
3 h, 24 mg/kg, Male, Harlan Sprague Dawley | 2300 | 1070
3 h, 80 mg/kg, Female, Harlan Sprague Dawley | 8400 | 3900
6 h, 24 mg/kg, Male, Harlan Sprague Dawley | 663 | 460
6 h, 80 mg/kg, Female, Harlan Sprague Dawley | 2060 | 1450
12 h, 24 mg/kg, Male, Harlan Sprague Dawley | 95.5 | 185
12 h, 80 mg/kg, Female, Harlan Sprague Dawley | 679 | 373

O=C(O)CSCC(=O)O [Thiodiglycolic Acid]
dosed: Thiodiglycolic Acid, 20 mg/kg, iv
Conditions | concentration in liver, [1] [ng/g] | concentration in plasma, [2] [ng/mL]
1 h, Female, Harlan Sprague Dawley | 71500 | 8500
1 h, Male, Harlan Sprague Dawley | 107000 | 1340
2 h, Female, Harlan Sprague Dawley | 21800 | 1220
2 h, Male, Harlan Sprague Dawley | 108000 | 751
3 h, Female, Harlan Sprague Dawley | 9460 | 520
3 h, Male, Harlan Sprague Dawley | 50900 | 553
4 h, Female, Harlan Sprague Dawley | 2680 | 228
4 h, Male, Harlan Sprague Dawley | 45400 | 332
5.333 h, Female, Harlan Sprague Dawley | 2410 | 302
5.333 h, Male, Harlan Sprague Dawley | 29400 | 247
6.667 h, Female, Harlan Sprague Dawley | 2220 | –
8 h, Female, Harlan Sprague Dawley | 246 | 200
10 h, Female, Harlan Sprague Dawley | 7570 | –
10 h, Male, F344 | 4770 | 215
10 min, Female, Harlan Sprague Dawley | 75000 | 37500
10 min, Male, F344 | 148000 | 25600
20 min, Female, F344 | 198000 | 6700
20 min, Female, Harlan Sprague Dawley | 11000 | 9230
40 min, Female, Harlan Sprague Dawley | 49400 | 3520
40 min, Male, Harlan Sprague Dawley | 190000 | 1820

Conditions | concentration in heart, [5] [ng/g] | concentration in thymus, [6] [ng/g]
1 h, Female, Harlan Sprague Dawley | 1670 | 2560
1 h, Male, Harlan Sprague Dawley | 1760 | 2750
2 h, Female, Harlan Sprague Dawley | 1120 | 1650
2 h, Male, Harlan Sprague Dawley | 1340 | 1940
3 h, Female, Harlan Sprague Dawley | 562 | 1060
3 h, Male, Harlan Sprague Dawley | 1040 | 1370
4 h, Female, Harlan Sprague Dawley | 414 | 708
4 h, Male, Harlan Sprague Dawley | 476 | 939
5.333 h, Female, Harlan Sprague Dawley | 232 | 399
5.333 h, Male, Harlan Sprague Dawley | 388 | 715
6.667 h, Female, Harlan Sprague Dawley | 238 | 236
8 h, Female, Harlan Sprague Dawley | 328 | 487
10 h, Female, Harlan Sprague Dawley | – | 215
10 h, Male, F344 | 362 | 358
10 min, Female, Harlan Sprague Dawley | 8480 | 8190
10 min, Male, F344 | 6870 | 10000
20 min, Female, F344 | 4000 | 3960
20 min, Female, Harlan Sprague Dawley | 4770 | 4460
40 min, Female, Harlan Sprague Dawley | 2650 | 3000
40 min, Male, Harlan Sprague Dawley | 2660 | 2890

CCC1(c2ccccc2)C(=O)NC(=O)NC1=O [Phenobarbital]
Conditions | concentration in plasma [ng/mL]
[7] | 4990

concentration in plasma [ng/mL], [2], dosed: Primidone, oral
Conditions | 0.25 h | 0.5 h | 1.5 h | 3 h | 6 h | 9 h | 12 h | 18 h | 22 h | 30 h
30 mg/kg, Female, F344 | – | – | 410 | 540 | 1060 | 900 | 1110 | 860 | 930 | –
30 mg/kg, Male, F344 | 300 | 330 | 2030 | 2980 | 3510 | 2720 | 2430 | 1660 | 1060 | –
80 mg/kg, Female, F344 | – | – | 630 | 1100 | 1960 | 2190 | 1980 | 1960 | 1500 | –
80 mg/kg, Female, Harlan Sprague-Dawley | 340 | 930 | – | – | – | – | 5660 | – | – | –
80 mg/kg, Male, F344 | – | – | 3330 | 3620 | 6530 | 7430 | – | 4020 | 2870 | –
130 mg/kg, Female, F344 | – | 960 | 870 | 4500 | 9670 | 3050 | 9030 | – | 2040 | 1920
130 mg/kg, Female, Harlan Sprague-Dawley | – | – | 4090 | – | – | – | – | – | – | –
130 mg/kg, Male, F344 | – | – | 4150 | – | 7700 | 9610 | – | – | 4120 | 2260
130 mg/kg, Male, Harlan Sprague Dawley | – | – | – | 840 | – | – | 2490 | – | – | –
